Experimental data taken from patent US20240269058A1, “AGAR HYDROLYSIS PRODUCT HAVING HYALURONIDASE INHIBITORY ACTIVITY AND USES THEREOF” (KOREA INSTITUTE OF OCEAN SCIENCE & TECHNOLOGY, priority 2022, published 2024).

Target: hyaluronidase (HAase)
Experiment: Hyaluronidase (HAase) inhibitory activity, N-acetylglucosamine from hyaluronic acid, DMAB absorbance at 540 nm
Format: biochemical
Procedure: The hyaluronidase (HAase) inhibitory activity was identified by measuring N-acetylglucosamine produced by degradation of hyaluronic acid by hyaluronidase. 12.5 μL of HAase (8 mg/mL) dissolved in 0.1 M acetate buffer (pH 3.5) was mixed with 12.5 μL of agar partial hydrolysis product (PHP) at a concentration of 9 mg/mL and reacted at 37° C. for 20 minutes. To activate the HAase, the mixture was added with 25 μL of 12.5 mM CaCl2) and reacted at 37 °C for 20 minutes, and added with 62.5 μL of hyaluronic acid (2.4 mg/ml) dissolved in 0.1 M acetate buffer (pH 3.5) and reacted at 37° ° C. for 40 minutes again. To stop the substrate-enzyme reaction, the reaction solution was added with 25 μl of 0.4 N NaOH and 25 μl of 0.4 N potassium tetraborate, reacted at 100° C. for 3 minutes, and then cooled. The reaction solution was added with 750 μl of a DMAB solution and cultured at 37 °C for 20 minutes, and the absorbance was measured at 540 nm. The inhibitory activity was calculated using the following equation.

Q: `O=C([O-])c1cc(=O)c2c(OCC(O)COc3cccc4oc(C(=O)[O-])cc(=O)c34)cccc2o1.[Na+].[Na+]` [DSCG, Disodium cromoglycate] was tested. Which IC50 (hyaluronidase inhibition) did it give?
A: 28 ± 10 mg/L

Q: What about the “Inhibition (%)” value (sample solution 1 mg/mL) of the same compound?
A: 65.32 ± 0.20%
